Molecular target: T1, Porcine dipeptidyl peptidase IV (Sus scrofa, UniProt P22411)
T1 construct: purchased Sigma D-7052
Experiment: Inhibition of dipeptidyl peptidase IV (DPP-IV) activity, Ala-Pro-AFC fluorimetric assay
Type: biochemical
Details: for IC50: 8 point concentration curves in duplicate, Ala-Pro-AFC 20 μM, Tris-HCl pH 8.0, 37° C.; for inhibition at 0.1 µM: test compound at 100 nM, read-out: Percent Inhibition of DPP-IV at 100 nM; for inhibition at 0.1 µM / inhibition at 1 µM: in duplicate; for inhibition at 1 µM: test compound at 1 uM, read-out: Percent Inhibition of DPP-IV at 1 uM
Experimental: Porcine dipeptidyl peptidase IV (Sigma, D-7052) is used. Test compound and/or vehicle is pre-incubated with enzyme (70 μU ? /ml) in Tris-HCl pH 8.0 for 15 minutes at 37° C. Ala-Pro-AFC (20 μM) is then added for a further 30 minutes incubation period. The concentration of proteolytic product, AFC, is then read spectrofluorimetrically. 8 point concentration curves in duplicate are used to calculate IC50 values, or percent inhibition is measured in duplicate at two dose levels.

T1 sequence (P22411 whole entry): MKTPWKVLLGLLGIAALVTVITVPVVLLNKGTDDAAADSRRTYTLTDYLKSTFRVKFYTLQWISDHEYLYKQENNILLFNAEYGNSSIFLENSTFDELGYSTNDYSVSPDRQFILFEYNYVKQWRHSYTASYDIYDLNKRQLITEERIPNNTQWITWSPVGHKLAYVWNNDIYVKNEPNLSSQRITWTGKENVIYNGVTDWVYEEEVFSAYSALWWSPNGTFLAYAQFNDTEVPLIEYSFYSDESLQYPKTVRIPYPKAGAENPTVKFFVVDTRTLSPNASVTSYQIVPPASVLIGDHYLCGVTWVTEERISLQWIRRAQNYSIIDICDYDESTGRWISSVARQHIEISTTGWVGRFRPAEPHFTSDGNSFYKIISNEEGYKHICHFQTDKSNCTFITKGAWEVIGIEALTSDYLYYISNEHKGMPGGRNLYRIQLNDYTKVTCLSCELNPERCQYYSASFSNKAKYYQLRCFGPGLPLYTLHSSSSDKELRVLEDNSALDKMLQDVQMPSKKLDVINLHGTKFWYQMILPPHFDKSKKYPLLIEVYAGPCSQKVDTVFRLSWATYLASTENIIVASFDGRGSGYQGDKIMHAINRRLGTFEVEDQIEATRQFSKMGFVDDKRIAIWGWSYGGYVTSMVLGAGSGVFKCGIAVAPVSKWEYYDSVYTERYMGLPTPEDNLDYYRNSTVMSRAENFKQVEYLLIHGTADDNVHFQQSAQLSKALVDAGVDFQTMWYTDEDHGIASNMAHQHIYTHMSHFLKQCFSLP

Structure (SMILES) | IC50 [nM] | inhibition at 0.1 µM [%] | inhibition at 1 µM [%]
CS(=O)(=O)NC12CC3CC(CC(NCC(=O)N4CCC[C@H]4C#N)(C3)C1)C2 [Example 1, (S)-1-[(3-methanesulfonamido-1-adamantyl)amino]acetyl-2-cyano-pyrrolidine] | 59 |  | 
CCS(=O)(=O)NC12CC3CC(CC(NCC(=O)N4CCC[C@H]4C#N)(C3)C1)C2 [Example 2, (S)-1-[(3-ethanesulfonamido-1-adamantyl)amino]acetyl-2-cyano-pyrrolidine] |  | 60 | 92
N#C[C@@H]1CCCN1C(=O)CNC12CC3CC(C1)CC(NS(=O)(=O)CC(F)(F)F)(C3)C2 [Example 3, (S)-1-[(3-(2,2,2-trifluoro)-ethanesulfonamido-1-adamantyl)amino]acetyl-2-cyano-pyrrolidine] |  | 68 | 94
N#C[C@@H]1CCCN1C(=O)CNC12CC3CC(C1)CC(NS(=O)(=O)c1ccc(F)cc1)(C3)C2 [Example 4, (S)-1-[(3-(4-fluorophenyl)sulfonamido-1-adamantyl)amino]acetyl-2-cyano-pyrrolidine] | 46 |  | 
N#Cc1ccc(NC23CC4CC(CC(NCC(=O)N5CCC[C@H]5C#N)(C4)C2)C3)nc1 [Example 5, 6-(3-(2-((S)-2-cyanopyrrolidin-1-yl)-2-oxoethylamino)-adamantylamino)nicotinonitrile] |  | 96 | 99
CN(C)S(=O)(=O)NC12CC3CC(CC(NCC(=O)N4CCC[C@H]4C#N)(C3)C1)C2 [Example 6, N′-(3-(2-((S)-2-cyanopyrrolidin-1-yl)-2-oxoethylamino)-adamantyl)-N,N-dimethyl-sulfamide] | 61 |  | 
N#C[C@@H]1CCCN1C(=O)CNC12CC3CC(C1)CC(NC(=O)NS(=O)(=O)c1ccc(F)cc1)(C3)C2 [Example 7, 1-(3-(2-((S)-2-cyanopyrrolidin-1-yl)-2-oxoethylamino)-adamantyl)-3-(4-fluorophenylsulfonyl)urea] | 70 |  | 
